{"source": "patent US20100137391A1", "about": "“Histamine H3 Agonist for use as Therapeutic Agent for a Lipid/Glucose Metabolic Disorder” (priority 2005, published 2010)", "key": {"C57BL/6J DiO mice": {"test_system": "C57BL/6J DiO mice", "experiment": "Anti-obesity test with Thioperamide", "type": "in vivo", "settings": "10 mpk Thioperamide at 9:00 or 17:00; FIG. 6", "method": "(§1) All mice were individually bred at 25° C., and light and dark were controlled every 12 hours. During breeding, water and feed were freely given to the mice. As such feed, CE2 (CLEA Japan, Inc.) was given to thin mice, and medium high fat diet (Oriental Bio Service Co., Ltd.) was given to DIO mice.\n(§2) The concentration of each compound was set at 5 ml/kg.\n(§3) Mice were divided into groups, depending on mean body weight and the amount of daily food intake before administration of the compound. The body weight and the amount of food intake were measured every day.\n(§4) In the test using Thioperamide, mice were divided into 4 groups: a group in which a solvent was administered to C57BL/6J DiO mice at 9:00; a group in which 10 mpk Thioperamide was administered thereto at 9:00; a group in which a solvent was administered to C57BL/6J DiO mice at 17:00; and a group in which 10 mpk Thioperamide was administered thereto at 17:00. […] On the 10th day after the administration, such mice were left in a starvation state for 2 hours. Thereafter, blood was collected from the orbit of each mouse, and the glucose and insulin levels were measured.\n(§5) A change in body weight was calculated by dividing a decrease in body weight by the body weight on day 0 at initiation of the test, and the calculated value was expressed as a percentage. The degree of obesity was measured using an NMR analyzer (Minispec; Bruker)."}, "H3RKO mice [1]": {"test_system": "H3RKO mice", "experiment": "Measurement of amount of food intake (and body weight), H3RKO mice", "type": "in vivo", "excerpt": "(§6) Histamine H3 receptor knockout mice (hereinafter referred to as “H3RKO mice”) were produced by the method of Takahashi et al. (J. Clin. Invest, Vol. 110, p. 1791, 2002). The obtained knockout mice were subjected to back crossing with C57BL/6J over 5 generations. Six- to nine-month-old male litters were used in an acute drug administration test. On the other hand, 18- to 20-month-old mice whose parents were H3RKO mice or wild type mice (N5 of C57BL/6J) were used in a chronic drug administration test.\nas §1, §2\n(§7) The amount of food intake was measured based on the weight of feed at 19:00 and 23:00."}, "wild type mice [2]": {"test_system": "wild type mice", "experiment": "Measurement of amount of food intake (and body weight), wild type mice", "type": "in vivo", "excerpt": "as §6, §1, §2, §7"}, "C57BL/6J mice": {"test_system": "C57BL/6J mice", "experiment": "Measurement of energy consumption (indirect calorimetry)", "type": "in vivo", "settings": "Imetit 5 mpk and 20 mpk vs vehicle", "method": "Energy consumption was measured using Indirect calorimetry (Columbus Instrument). That is to say, C57BL/6J mice were acclimatized in a test chamber overnight, and VO2 (oxygen consumption) and VCO2 […] were then measured for 1 minute every 10 minutes. Sample air was collected every 10 minutes. RQ (respiratory quotient) was calculated by dividing […]. The test was carried out from 9:00 to 17:00. During the test, mice were allowed to freely ingest feed and water."}, "H3RKO mice [3]": {"test_system": "H3RKO mice", "experiment": "Anti-obesity test with Imetit, H3RKO mice", "type": "in vivo", "excerpt": "as §6, §1, §2, §3, §4, §5"}, "wild type mice [4]": {"test_system": "wild type mice", "excerpt": "as §6, §1, §2, §3, §4, §5"}, "[5]": {"settings": "H3RKO, 10th day after administration, 2 hours starvation, blood"}, "[6]": {"settings": "H3RKO, Imetit twice a day, NMR analyzer"}, "[7]": {"settings": "Wild type, 10th day after administration, 2 hours starvation, blood"}, "[8]": {"settings": "Wild type, Imetit twice a day, NMR analyzer"}}}
{"smiles": "S=C(NC1CCCCC1)N1CCC(c2cnc[nH]2)CC1", "note": "[Thioperamide]", "values": [{"measurement": "body weight of fat mice", "setting": "C57BL/6J DiO mice", "result": "tendency that the body weight of fat mice was increased"}]}
{"smiles": "N=C(N)SCCc1c[nH]cn1", "note": "[Imetit, carbamimidothioic acid 2-(1H-imidazol-4-yl)ethyl ester]", "values": [{"measurement": "change in body weight", "setting": "H3RKO mice [1]; FIG. 4", "result": "such a change in body weight was not observed"}, {"measurement": "amount of food intake", "setting": "H3RKO mice [1]; oral administration, vs solvent control mice, FIG. 2", "result": "such a decrease in the amount of food intake was not observed"}, {"measurement": "change in body weight", "setting": "wild type mice [2]; FIG. 3", "result": "decreased depending on the number of doses"}, {"measurement": "amount of food intake", "setting": "wild type mice [2]; oral administration, vs solvent control mice, FIG. 1", "result": "lower than that of control mice"}, {"measurement": "VO2 (oxygen consumption)", "setting": "C57BL/6J mice; FIG. 8, 11", "result": "increases"}, {"measurement": "VCO2", "setting": "C57BL/6J mice; FIG. 9, 11", "result": "increases"}, {"measurement": "RQ (respiratory quotient)", "setting": "C57BL/6J mice; FIG. 10, 11", "result": "decrease"}, {"measurement": "body weight-decreasing effect", "setting": "H3RKO mice [3]; H3RKO mice, Imetit twice a day", "result": "such effect was not observed in H3RKO mice"}, {"measurement": "Glucose", "setting": "H3RKO mice [3]; [5]", "result": "166.7 ± 10.5", "unit": "mg/dL"}, {"measurement": "Insulin", "setting": "H3RKO mice [3]; [5]", "result": "4.7 ± 0.9", "unit": "ng/mL"}, {"measurement": "Fat (%)", "setting": "H3RKO mice [3]; [6]", "result": "46.3 ± 2.0", "unit": "%"}, {"measurement": "Lean body mass (%)", "setting": "H3RKO mice [3]; [6]", "result": "52.7 ± 1.4", "unit": "%"}, {"measurement": "abnormal glucose tolerance", "setting": "wild type mice [4]", "result": "improved"}, {"measurement": "Glucose", "setting": "wild type mice [4]; [7]", "result": "164.1 ± 6.4", "unit": "mg/dL"}, {"measurement": "Insulin", "setting": "wild type mice [4]; [7]", "result": "4.7 ± 0.8", "unit": "ng/mL"}, {"measurement": "Fat (%)", "setting": "wild type mice [4]; [8]", "result": "39.2 ± 2.0", "unit": "%"}, {"measurement": "Lean body mass (%)", "setting": "wild type mice [4]; [8]", "result": "58.3 ± 1.6", "unit": "%"}, {"measurement": "insulin concentration in blood", "setting": "wild type mice [4]; together with fat-decreasing effect", "result": "decreased"}]}
